Source: paper PMC9090415, “Discovery of small molecule inhibitors of Plasmodium falciparum apicoplast DNA polymerase” (Journal of Enzyme Inhibition and Medicinal Chemistry, 2022)

Molecular target: P. falciparum apicoplast DNA polymerase (Pf-apPOL) (Plasmodium falciparum, UniProt Q8ILY1)
Test: Fluorescence-based high-throughput DNA polymerase assay (molecular beacon), primary screen and dose-response;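 for % inhibition Apol 40': compound concentration given in µM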
Format: biochemical
Conditions: for DNA Pol: 90 min, 10 µM
Procedure, shortened: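 Single-point screening used 10 µM compound with 20 nM polymerase, 20 nM hairpin substrate and 6 µM dNTPs for 90 min at 25 °C. Confirmatory titrations (2.5–80 µM) followed fluorescence at three times, and IC50 was derived from a fit including a cooperativity term n.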

[1] = 'DNA Pol' of the 186 hits list (primary screen value)

Sequence of P. falciparum apicoplast DNA polymerase (Pf-apPOL) (Q8ILY1 entry or part of it): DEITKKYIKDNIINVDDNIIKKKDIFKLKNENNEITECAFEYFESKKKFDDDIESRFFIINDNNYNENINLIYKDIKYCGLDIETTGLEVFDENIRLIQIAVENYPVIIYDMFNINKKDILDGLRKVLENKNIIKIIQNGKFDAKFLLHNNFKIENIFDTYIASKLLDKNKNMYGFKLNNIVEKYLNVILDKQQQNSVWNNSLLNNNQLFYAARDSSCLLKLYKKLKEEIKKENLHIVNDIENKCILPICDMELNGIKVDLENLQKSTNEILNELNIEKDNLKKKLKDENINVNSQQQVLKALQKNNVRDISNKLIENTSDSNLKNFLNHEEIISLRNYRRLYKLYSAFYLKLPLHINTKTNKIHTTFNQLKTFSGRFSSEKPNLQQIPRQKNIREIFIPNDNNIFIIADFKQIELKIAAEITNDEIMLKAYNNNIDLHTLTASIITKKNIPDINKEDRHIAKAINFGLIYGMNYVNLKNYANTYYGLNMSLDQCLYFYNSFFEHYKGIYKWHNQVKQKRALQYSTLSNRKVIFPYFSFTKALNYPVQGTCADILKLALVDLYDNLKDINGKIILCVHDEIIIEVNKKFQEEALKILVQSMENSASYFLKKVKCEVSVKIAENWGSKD

N#CC(=NNc1cc(C(F)(F)F)cc(C(F)(F)F)c1)C(=O)c1ccco1 [KU0264276]
DNA Pol ("DNA Pol" of the 186 hits list (screen value)): 81 | % inhibition Apo pol 10' (DRC-1, concentration 2.5): 7.413% | % inhibition Apo pol 10' (DRC-1, concentration 5): 17.153% | % inhibition Apo pol 10' (DRC-1, concentration 10): 33.1185% | % inhibition Apo pol 10' (DRC-1, concentration 20): 55.9301% | % inhibition Apo pol 10' (DRC-1, concentration 40): 90.9847% | % inhibition Apo pol 10' (DRC-1, concentration 80): 81.2188% | % inhibition Apol 90' (DRC-1, concentration 2.5): 13.8039% | % inhibition Apol 90' (DRC-1, concentration 5): 15.4083% | % inhibition Apol 90' (DRC-1, concentration 10): 41.225% | % inhibition Apol 90' (DRC-1, concentration 20): 52.5694% | % inhibition Apol 90' (DRC-1, concentration 40): 86.2656% | % inhibition Apol 90' (DRC-1, concentration 80): 77.3906% | % inhibition apPOL 180' (DRC-1, concentration 2.5): 13.2581% | % inhibition apPOL 180' (DRC-1, concentration 5): 8.8259% | % inhibition apPOL 180' (DRC-1, concentration 10): 37.6364% | % inhibition apPOL 180' (DRC-1, concentration 20): 41.4937% | % inhibition apPOL 180' (DRC-1, concentration 40): 81.9249% | % inhibition apPOL 180' (DRC-1, concentration 80): 71.4519% | % inhibition Apo pol 5' (DRC-2, concentration 2.5): 6% | % inhibition Apo pol 5' (DRC-2, concentration 5): 12% | % inhibition Apo pol 5' (DRC-2, concentration 10): 27% | % inhibition Apo pol 5' (DRC-2, concentration 20): 47% | % inhibition Apo pol 5' (DRC-2, concentration 40): 57% | % inhibition Apo pol 5' (DRC-2, concentration 80): 58% | % inhibition Apol 40' (DRC-2, concentration 2.5): 8% | % inhibition Apol 40' (DRC-2, concentration 5): 15% | % inhibition Apol 40' (DRC-2, concentration 10): 34% | % inhibition Apol 40' (DRC-2, concentration 20): 59% | % inhibition Apol 40' (DRC-2, concentration 40): 69% | % inhibition Apol 40' (DRC-2, concentration 80): 72% | % inhibition ApPOL 90' (DRC-2, concentration 2.5): 4.34% | % inhibition ApPOL 90' (DRC-2, concentration 5): 14% | % inhibition ApPOL 90' (DRC-2, concentration 10): 32% | % inhibition ApPOL 90' (DRC-2, concentration 20): 59% | % inhibition ApPOL 90' (DRC-2, concentration 40): 71% | % inhibition ApPOL 90' (DRC-2, concentration 80): 74% | % inhibition apPOL 180' (DRC-2, concentration 2.5): -0.774% | % inhibition apPOL 180' (DRC-2, concentration 5): 4.73% | % inhibition apPOL 180' (DRC-2, concentration 10): 22% | % inhibition apPOL 180' (DRC-2, concentration 20): 52% | % inhibition apPOL 180' (DRC-2, concentration 40): 67% | % inhibition apPOL 180' (DRC-2, concentration 80): 74% | DNA Pol (primary screen value, DNA Pol): 81

Cl.NC(CO)C(=O)NNCc1ccc(O)c(O)c1O (stereo not drawn) [KU0260493]
DNA Pol [1]: 84 | DNA Pol (DNA Pol (primary screen value)): 84 | % inhibition Apo pol 10' (DRC-1, concentration 2.5): 2.4672% | % inhibition Apo pol 10' (DRC-1, concentration 5): 2.015% | % inhibition Apo pol 10' (DRC-1, concentration 10): 15.4444% | % inhibition Apo pol 10' (DRC-1, concentration 20): 26.1922% | % inhibition Apo pol 10' (DRC-1, concentration 40): 36.4325% | % inhibition Apo pol 10' (DRC-1, concentration 80): 40.9646% | % inhibition Apol 90' (DRC-1, concentration 2.5): -5.483% | % inhibition Apol 90' (DRC-1, concentration 5): -0.705% | % inhibition Apol 90' (DRC-1, concentration 10): 31.8192% | % inhibition Apol 90' (DRC-1, concentration 20): 46.4998% | % inhibition Apol 90' (DRC-1, concentration 40): 57.8018% | % inhibition Apol 90' (DRC-1, concentration 80): 63.3107% | % inhibition apPOL 180' (DRC-1, concentration 2.5): -3.278% | % inhibition apPOL 180' (DRC-1, concentration 5): 12.5243% | % inhibition apPOL 180' (DRC-1, concentration 10): 43.7705% | % inhibition apPOL 180' (DRC-1, concentration 20): 57.9843% | % inhibition apPOL 180' (DRC-1, concentration 40): 66.1218% | % inhibition apPOL 180' (DRC-1, concentration 80): 68.6937% | % inhibition Apo pol 5' (DRC-2, concentration 2.5): -5.63% | % inhibition Apo pol 5' (DRC-2, concentration 5): 3.49% | % inhibition Apo pol 5' (DRC-2, concentration 10): 23% | % inhibition Apo pol 5' (DRC-2, concentration 20): 36% | % inhibition Apo pol 5' (DRC-2, concentration 40): 47% | % inhibition Apo pol 5' (DRC-2, concentration 80): 54% | % inhibition Apol 40' (DRC-2, concentration 2.5): -1.63% | % inhibition Apol 40' (DRC-2, concentration 5): 15% | % inhibition Apol 40' (DRC-2, concentration 10): 38% | % inhibition Apol 40' (DRC-2, concentration 20): 53% | % inhibition Apol 40' (DRC-2, concentration 40): 62% | % inhibition Apol 40' (DRC-2, concentration 80): 65% | % inhibition ApPOL 90' (DRC-2, concentration 2.5): 1.48% | % inhibition ApPOL 90' (DRC-2, concentration 5): 22% | % inhibition ApPOL 90' (DRC-2, concentration 10): 45% | % inhibition ApPOL 90' (DRC-2, concentration 20): 60% | % inhibition ApPOL 90' (DRC-2, concentration 40): 67% | % inhibition ApPOL 90' (DRC-2, concentration 80): 68% | % inhibition apPOL 180' (DRC-2, concentration 2.5): 11% | % inhibition apPOL 180' (DRC-2, concentration 5): 32% | % inhibition apPOL 180' (DRC-2, concentration 10): 53% | % inhibition apPOL 180' (DRC-2, concentration 20): 67% | % inhibition apPOL 180' (DRC-2, concentration 40): 71% | % inhibition apPOL 180' (DRC-2, concentration 80): 72%

CC(=O)c1cc2c(N)c(/C(N)=N/C#N)sc2nc1C [KU0015866]
DNA Pol [1]: 33 | DNA Pol (DNA Pol (primary screen value)): 33 | % inhibition Apo pol 10' (DRC-1, concentration 2.5): 6.515% | % inhibition Apo pol 10' (DRC-1, concentration 5): 12.7693% | % inhibition Apo pol 10' (DRC-1, concentration 10): 31.7983% | % inhibition Apo pol 10' (DRC-1, concentration 20): 44.0355% | % inhibition Apo pol 10' (DRC-1, concentration 40): 64.9344% | % inhibition Apo pol 10' (DRC-1, concentration 80): 81.2768% | % inhibition Apol 90' (DRC-1, concentration 2.5): -0.6957% | % inhibition Apol 90' (DRC-1, concentration 5): -1.631% | % inhibition Apol 90' (DRC-1, concentration 10): 8.506% | % inhibition Apol 90' (DRC-1, concentration 20): 14.7865% | % inhibition Apol 90' (DRC-1, concentration 40): 35.058% | % inhibition Apol 90' (DRC-1, concentration 80): 75.8739% | % inhibition apPOL 180' (DRC-1, concentration 2.5): -1.629% | % inhibition apPOL 180' (DRC-1, concentration 5): -5.477% | % inhibition apPOL 180' (DRC-1, concentration 10): 0.782% | % inhibition apPOL 180' (DRC-1, concentration 20): 3.3611% | % inhibition apPOL 180' (DRC-1, concentration 40): 18.0593% | % inhibition apPOL 180' (DRC-1, concentration 80): 70.7811% | % inhibition Apo pol 5' (DRC-2, concentration 2.5): 7% | % inhibition Apo pol 5' (DRC-2, concentration 5): 12% | % inhibition Apo pol 5' (DRC-2, concentration 10): 28% | % inhibition Apo pol 5' (DRC-2, concentration 20): 37% | % inhibition Apo pol 5' (DRC-2, concentration 40): 40% | % inhibition Apo pol 5' (DRC-2, concentration 80): 37% | % inhibition Apol 40' (DRC-2, concentration 2.5): 6% | % inhibition Apol 40' (DRC-2, concentration 5): 4.46% | % inhibition Apol 40' (DRC-2, concentration 10): 19% | % inhibition Apol 40' (DRC-2, concentration 20): 33% | % inhibition Apol 40' (DRC-2, concentration 40): 48% | % inhibition Apol 40' (DRC-2, concentration 80): 55% | % inhibition ApPOL 90' (DRC-2, concentration 2.5): 4.51% | % inhibition ApPOL 90' (DRC-2, concentration 5): 1.44% | % inhibition ApPOL 90' (DRC-2, concentration 10): 14% | % inhibition ApPOL 90' (DRC-2, concentration 20): 25% | % inhibition ApPOL 90' (DRC-2, concentration 40): 45% | % inhibition ApPOL 90' (DRC-2, concentration 80): 56% | % inhibition apPOL 180' (DRC-2, concentration 2.5): -4.65% | % inhibition apPOL 180' (DRC-2, concentration 5): -9% | % inhibition apPOL 180' (DRC-2, concentration 10): -0.253% | % inhibition apPOL 180' (DRC-2, concentration 20): 10% | % inhibition apPOL 180' (DRC-2, concentration 40): 34% | % inhibition apPOL 180' (DRC-2, concentration 80): 54%
